Usually IC50 stands for the midpoint of a concentration-inhibition curve.

One data set concerns CCRF-CEM. The experiment in a line: CellTiterGlo cell viability assay, initial screening. Format: cell-based. As to conditions: CCRF-CEM; 72 hr; Table II. The procedure, abridged: (§1)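 Under standard growth conditions with 0.5% final DMSO, cells received pre-warmed compound-containing media over nine 3.16-fold dilutions reaching 19.9 nM. After roughly 72 hr, CellTiter-Glo was used to quantify viability; all treatments were done in duplicate.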

Another data set relates to HepG2. Described as above. It counts as cell-based. As to conditions: for M.I. %: maximum percentage inhibition of cell viability: HepG2, 72 hr, Table II; for IC50: Homo sapiens, HepG2, 72 h, read-out: IC50 (relative IC50). The procedure, abridged:
as §1

The test system of another data set is MCF-7. Described as above. As to conditions: MCF-7; 72 hr; Table II. Format: cell-based. The gist of the method:
as §1

Data set [1] deals with MOLT-4. The description is as above. Format: cell-based. The note with it: for M.I. %: maximum percentage inhibition of cell viability: MOLT-4, 72 hr, Table II. The gist of the method:
as §1

The subject of a further data set is BxPC-3. Kind of data set: Solid tumour and haematological malignancy assay (CellTiterGlo). It counts as cell-based. The note with it: 72 hr. How it is done: (§2) In vitro viability assay were performed to assess the effects of compounds on cell viability in selected cell lines over 72 hr using the CellTiterGlo (CTG, Promega-G7573) assay. The tests were performed in duplicates with treatment of compounds at 9 points, 3.16 folds titration in 96 well plates over ˜72 hr. The compound starting concentrations were […]. Cell viability assay using CellTiterGlo in 96-well plate were performed. Compound treatment 72 hrs, standard growth conditions, duplicates. Compounds were dissolved to 40 mM with thawed […]. Compounds were serially diluted at 3.16 fold in thawed DMSO, and warmed to 37° C. before being dissolved in media (2 μl+200 μl). After compounds were dissolved in media, media containing compounds were warmed to 37° C. in incubator and then compounds in media were added to cell plates (50 μl+50 μl) in duplicates. The compounds' final concentrations were from 198M to 19.9 nM. All compound solubilities were checked and recorded again, then the plates were transferred to CO2 tissue culture incubator immediately and incubated for 3 days. DMSO final concentration is 0.5%.
A general note: In ATP-based viability assays light output follows the ATP content of the culture.

The subject of the next data set is HS445. The data set is described as above. As to conditions: 72 hr. It counts as cell-based. How it is done: as §2
A further data set concerns Jurkat. The data set is described as above. Format: cell-based. As to conditions: for MI %: 72 hr; for IC50: Homo sapiens, 72 h, read-out: IC50 (absolute IC50). How it is done: as §2
Data set [2] has as its system MOLT-4. The description is as above. It counts as cell-based. As to conditions: Homo sapiens, MOLT-4, 72 h; for IC50: read-out: IC50 (absolute IC50); for Emax: read-out: MI %. How it is done: as §2
The subject of another data set is SW620. The data set is described as above. As to conditions: for IC50: Homo sapiens, SW-620, 72 h, read-out: IC50 (absolute IC50); for MI %: SW620, 72 hr. It counts as cell-based. How it is done:
as §2

Another data set has as its system RPMI-8226. The description is as above. The note with it: for MI %: RPMI-8226, 72 hr. Format: cell-based, Human. As to the method: as §2
The subject of a further data set is HL-60. The experiment in a line: ATP ViaLight plus cell viability assay. As to conditions: for (FD) fold difference compared to Cordycepin = Cordycepin IC50/ProTide IC50: HL-60. Format: cell-based, Human. How it is done: (§3) Certain compounds of the invention were subjected to further studies to test the cytotoxic activity of certain compounds of the invention and also to measure their activity against 4 haematological cancer cell lines • TdT positive CEM (Human ALL) • TdT negative K562 (Human CML) • TdT negative H1-60 (Human ANLL) • RL (CRL-2261) non-HD lymphoma • The concentrations of the active metabolite dATP (Cordycepin triphosphate) in these cell lines was also measured. • The cytotoxic activity and the intracellular 3′-dATP concentrations were also studied in the presence of hENT1, Adenosine Kinase (AK) and Adenosine Deaminase pharmacological inhibitors in CEM and RL cancer cell lines. Said inhibitors that mimic known cancer resistance mechanisms. Methods Cell Culture
(§4) HL-60, K562, CCRF-CEM and RL cell lines were cultured in RPMI-1640 medium (Sigma Aldrich, UK), which were supplemented with 10% Fetal Bovine Serum (FBS) (PAA Laboratories), 1% amphotericin B (5.5 ml) and 1% penicillin/streptomycin (5.5 ml) (PAA Laboratories) and grown in flasks at 37° C. incubator with 5% CO2.
(§5) The amount of ATP was used as a measurement of cell number and cell viability. ATP ViaLight™ plus assay kit (Lonza, USA: Product No. LT07-121) to detect ATP in cells treated in luminescence compatible 96 well plates (initial concentration of cells was 1×10^4 cells/well) with cordycepin and ProTides at concentrations of: 0, 0.1, 0.5, 1, 5 and 10 μM, followed by incubation for 72 hours at 37° C. incubator with 5% CO2. For inhibitor studies, 10 μM of NBTI or 1 μM EHNA or A-134974 was added and left for 5 minutes before adding the drugs (see section 5 for inhibitor details).
(§6) After incubation, 50 μl of cell lysis reagent was added to the 96 well plates to release the intracellular ATP, followed by 100 μl of ATP monitoring reagent (AMR). The luminescent values of each well were determined using FLUOstar OPTIMA microplate reader (BMG Labtech) which convert ATP into light by using luciferase enzyme. Therefore, the amount of luminescence produced was directly proportional to the amount of ATP.
(§7) The dose-response curves of cytotoxicity of the drugs was determined using non-linear regression analysis of percentage cell viability versus concentration and EC50 values were obtained. The intracellular assay was conducted in five replicates for each condition. Intracellular assay was determined using paired t test (two-tailed) analysis of 3′ ATP/ATP concentration and p-values were obtained. For all the analysis, Prism Software program (GraphPad Software) was used and Microsoft Powerpoint® 2013 was used to plot the results.

The subject of a further data set is K562. The experiment in a line: ATP ViaLight plus cell viability assay. Format: cell-based, Human. The note with it: for (FD) fold difference compared to Cordycepin = Cordycepin IC50/ProTide IC50: K562. As to the method:
as §3, §4, §5, §6, §7

Structures are written as SMILES.

For `C[C@H](NP(=O)(OC[C@@H]1C[C@@H](O)[C@H](n2cnc3c(N)ncnc32)O1)Oc1cccc2ccccc12)C(=O)OCc1ccccc1` (stereo partly drawn) [B, (2S)-benzyl 2-(((((2S,4R,5R)-5-(6-amino-9H-purin-9-yl)-4-hydroxytetrahydrofuran-2-yl)methoxy)(naphthalen-1-yloxy)phosphoryl)amino)propanoate], the “M.I. %: maximum percentage inhibition of cell viability” value (“M.I. %: maximum percentage inhibition” below) was found to be 100% in the data set on CCRF-CEM, 95% with HepG2, 99% in the data set on MCF-7 and 100% with MOLT-4 [1]. Moreover, the IC50 fell in the range of 0.1 to 5 µM with MOLT-4 [1] (Homo sapiens, MOLT-4, 72 h, read-out: IC50 (relative IC50)); 0.1 to 5 µM in the data set with Jurkat; 0.1 to 5 µM in the data set on MOLT-4 [2]; 5 to 15 µM in the data set on SW620. Also, the MI % with BxPC-3 came to 90%; in the data set on HS445 it was 96%; in the data set on Jurkat it was 100%; in the data set on SW620 it was 93%; in the data set with RPMI-8226, 102%. For the same compound, in the data set on MOLT-4 [2], the Emax is 98%. The results for the “(FD) fold difference compared to Cordycepin = Cordycepin IC50/ProTide IC50” value with HL-60 and in the data set with K562 were 4 and 52, respectively.

For `COC(=O)C(C)(C)NP(=O)(OC[C@@H]1C[C@@H](O)[C@H](n2cnc3c(N)ncnc32)O1)Oc1cccc2ccccc12` (stereo partly drawn) [E, Methyl 2-(((((2S,4R,5R)-5-(6-amino-9H-purin-9-yl)-4-hydroxytetrahydrofuran-2-yl)-methoxy)(naphthalen-1-yloxy)phosphoryl)amino)-2-methylpropanoate], the “M.I. %: maximum percentage inhibition” value is on record as 90% in the data set on CCRF-CEM, 59% in the data set with HepG2, 78% in the data set with MCF-7 and 97% in the data set with MOLT-4 [1]. The IC50 in the data set on HepG2 and in the data set with SW620 was 15 to 100 µM each time. Also, the MI % is 71% in the data set with BxPC-3; 85% in the data set with HS445; 95% with Jurkat; 74% with SW620; 89% in the data set on RPMI-8226. The Emax with MOLT-4 [2] is 98%. The “(FD) fold difference compared to Cordycepin = Cordycepin IC50/ProTide IC50” value with HL-60 and in the data set with K562 was 1 in each case.

With `CCOC(=O)CCc1ccccc1OP(=O)(N[C@@H](C)C(=O)OCc1ccccc1)OC[C@@H]1C[C@@H](O)[C@H](n2cnc3c(N)ncnc32)O1` (stereo partly drawn) [F, (2S)-benzyl 2-(((((2S,4R,5R)-5-(6-amino-9H-purin-9-yl)-4-hydroxytetrahydrofuran-2-yl)methoxy)(2-(3-ethoxy-3-oxopropyl)phenoxy)phosphoryl)amino)propanoate], the “M.I. %: maximum percentage inhibition” value in the data set with CCRF-CEM worked out at 99%; with HepG2, 84%; with MCF-7 it was 99%; in the data set on MOLT-4 [1], 100%. Further, the IC50 in the data set with HepG2 was 15 to 100 µM; in the data set on Jurkat it was 0.1 to 5 µM; with MOLT-4 [2] it was 0.1 to 5 µM; in the data set on SW620, 15 to 100 µM; in the data set with RPMI-8226 (Homo sapiens, RPMI-8226, 72 h, read-out: IC50 (absolute IC50)), 15 to 100 µM; in the data set with HL-60 (Homo sapiens, HL-60, 72 h), 8.3 µM. Besides, the IC50 in the data set with K562 (Homo sapiens, K562, 72 h) was found to be 6.3 µM. Also, the MI % amounted to 78% in the data set with BxPC-3, 92% with HS445, 100% in the data set on Jurkat and 106% in the data set on RPMI-8226. For the same compound, in the data set with MOLT-4 [2], the Emax came to 98%. For the same compound, the “(FD) fold difference compared to Cordycepin = Cordycepin IC50/ProTide IC50” value worked out at 1 with HL-60 and 2 in the data set on K562.

The values are drawn from US12054510B2, “2′ and/or 5′ amino-acid ester phosphoramidate 3′-deoxy adenosine derivatives as anti-cancer compounds” (Nucana plc, priority 2014, dated 2024).
